The supplement of paper PMC10307832

Experiments:
Assay in all cases: relative viability (nuclei count vs DMSO), 5 days (fraction); higher = more cells survive
Shikonin + Linsitinib = compound: CC(C)=CC[C@@H](O)C1=CC(=O)c2c(O)ccc(O)c2C1=O [Shikonin] + C[C@]1(O)C[C@@H](c2nc(-c3ccc4ccc(-c5ccccc5)nc4c3)c3c(N)nccn32)C1 [Linsitinib] (partner 1 µM)
Outline: (§1)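 Cells from lung cancer lines were seeded into 1536-well plates and, one day later, dosed by pin tool. Treatments were either a single drug or a fixed dose of an anchor drug with five library-drug doses (not always all listed) in √10 steps. After 5 days, nuclei were stained in a one-step fixation (final 0.05% Triton X-100, 1% formaldehyde, 1 ug/ml Hoechst) and counted on 4× images, and relative viability is the treated-to-vehicle nuclei ratio, as the median of duplicate plates.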

[1] = compound: CC(C)N(CCCNC(=O)Nc1ccc(C(C)(C)C)cc1)C[C@H]1O[C@@H](n2ccc3c(N)ncnc32)[C@H](O)[C@@H]1O + CCNC(=O)c1noc(-c2cc(C(C)C)c(O)cc2O)c1-c1ccc(CN2CCOCC2)cc1 [Luminespib] (partner 0.01 µM)
Outline: as §1

Shikonin + Phenformin = compound: CC(C)=CC[C@@H](O)C1=CC(=O)c2c(O)ccc(O)c2C1=O [Shikonin] + N=C(N)NC(=N)NCCc1ccccc1 [Phenformin] (partner 250 µM)
Outline: as §1

Shikonin + OSI-027 = compound: CC(C)=CC[C@@H](O)C1=CC(=O)c2c(O)ccc(O)c2C1=O [Shikonin] + COc1cccc2cc(-c3nc([C@H]4CC[C@H](C(=O)O)CC4)n4ncnc(N)c34)[nH]c12 [OSI-027] (partner 0.5 µM)
Outline: as §1

Cell Line	relative viability (Shikonin + Linsitinib; first compound 0.01 µM)	relative viability (Shikonin + Linsitinib; first compound 0.1 µM)	relative viability (Shikonin + Linsitinib; first compound 0.3162 µM)	relative viability (Shikonin + Linsitinib; first compound 1 µM)	relative viability ([1]; first compound 0.08 µM)	relative viability ([1]; first compound 0.253 µM)	relative viability ([1]; first compound 0.8 µM)	relative viability ([1]; first compound 2.53 µM)	relative viability ([1]; first compound 8 µM)	relative viability (Shikonin + Phenformin; first compound 0.01 µM)	relative viability (Shikonin + Phenformin; first compound 0.1 µM)	relative viability (Shikonin + Phenformin; first compound 0.3162 µM)	relative viability (Shikonin + Phenformin; first compound 1 µM)	relative viability (Shikonin + OSI-027; first compound 0.01 µM)	relative viability (Shikonin + OSI-027; first compound 0.1 µM)	relative viability (Shikonin + OSI-027; first compound 0.3162 µM)	relative viability (Shikonin + OSI-027; first compound 1 µM)
HCC-44	0.798	0.636	0.685	0.694	0.972	1.06	1.1	1.15	1.03	0.212	0.162	0.226	0.267	0.512	0.513	0.466	0.747
HCC-827	0.909	1.09	0.999	0.906	0.625	0.573	–	0.599	0.688	0.438	0.404	0.42	0.373	0.821	0.86	0.9	0.761
NCI-H1623	–	–	–	–	0.495	0.472	0.394	0.589	0.547	0.551	0.601	0.592	0.603	0.397	0.428	0.414	0.393
NCI-H2405	0.903	0.982	1.01	0.914	0.691	0.61	0.722	0.78	0.74	0.391	0.398	0.427	0.396	0.644	0.661	0.67	0.658
RERF-LC-KJ	0.985	0.896	0.867	0.953	1.2	1.22	1.33	1.18	1.19	0.374	0.433	0.505	0.36	0.513	0.534	0.632	0.644
NCI-H1651	0.974	1.12	0.996	1.01	0.805	0.903	0.785	0.765	0.722	0.381	0.377	0.281	0.349	0.744	0.469	0.708	0.686
HARA	1.1	0.925	1.01	0.925	0.682	0.626	0.731	0.536	0.587	0.431	0.707	0.538	0.491	0.431	0.667	0.521	0.521
NCI-H1650	–	–	–	–	0.207	0.218	–	0.208	0.226	0.443	0.488	0.335	0.254	0.596	0.459	0.392	0.487
NCI-H1395	1.08	1.4	0.878	1.05	0.632	0.734	0.571	0.884	0.798	0.42	0.484	0.419	0.459	0.582	0.681	0.661	0.732
NCI-H520	–	1.11	1.07	1.07	0.22	0.219	0.239	0.221	0.232	0.504	0.809	0.567	0.6	0.288	0.243	0.209	0.304
LU99A	0.573	0.522	0.525	0.536	0.234	0.277	0.253	0.317	0.222	0.859	1.15	0.758	0.791	0.271	0.344	0.265	0.305
NCI-H1355	0.764	0.943	0.887	0.855	0.763	0.614	0.679	0.609	0.665	0.438	0.483	0.46	0.476	0.457	0.405	0.37	0.483
HCC-78	0.499	0.496	0.658	0.56	–	–	–	–	–	0.66	0.705	0.697	0.806	0.338	0.377	0.353	0.401
NCI-H1563	1.27	1.29	1.23	0.892	0.474	0.542	0.592	0.533	0.515	0.662	0.723	0.643	0.673	0.678	0.714	0.798	0.769
HCC-15	0.99	0.906	0.874	0.935	0.327	0.378	0.435	0.33	0.31	0.511	0.545	0.49	0.456	0.719	0.705	0.692	0.744
EKVX	1.04	0.962	1.29	1.09	0.758	0.847	0.838	0.909	0.846	0.213	0.229	0.233	0.243	0.617	0.668	0.917	0.734
NCI-H2126	0.71	0.814	0.752	0.699	0.847	0.814	0.941	0.88	0.925	0.518	0.571	0.565	0.513	0.709	0.638	0.735	0.67
LK-2	0.589	0.539	0.527	0.473	0.185	0.193	0.191	0.169	0.214	0.434	0.496	0.442	0.466	0.168	0.241	0.203	0.227
NCI-H1437	1.28	1.05	1.23	1.11	1.07	1.02	1.14	1.15	1.05	0.299	0.338	0.337	0.321	0.936	0.833	0.849	0.952
COR-L23	0.99	0.865	0.917	0.797	0.683	0.757	0.755	0.739	0.545	0.462	0.438	0.465	0.406	0.854	0.778	0.732	0.729
ABC-1	0.968	0.754	0.689	0.647	0.676	0.802	–	0.635	0.583	0.247	0.23	0.206	0.188	0.61	0.533	0.391	0.265
NCI-H522	–	–	–	–	0.949	1.2	1.05	1.1	1.22	0.663	0.713	0.601	0.623	0.566	0.729	0.72	0.809
PC-3 [JPC-3]	0.923	1.07	0.951	1.03	0.699	0.704	0.779	0.71	0.683	0.488	0.231	0.477	0.428	0.851	0.746	0.759	0.751

Cell Line	relative viability (Shikonin + Linsitinib; first compound 0.01 µM)	relative viability (Shikonin + Linsitinib; first compound 0.1 µM)	relative viability (Shikonin + Linsitinib; first compound 0.3162 µM)	relative viability (Shikonin + Linsitinib; first compound 1 µM)	relative viability ([1]; first compound 0.08 µM)	relative viability ([1]; first compound 0.253 µM)	relative viability ([1]; first compound 0.8 µM)	relative viability ([1]; first compound 2.53 µM)	relative viability ([1]; first compound 8 µM)	relative viability (Shikonin + Phenformin; first compound 0.01 µM)	relative viability (Shikonin + Phenformin; first compound 0.1 µM)	relative viability (Shikonin + Phenformin; first compound 0.3162 µM)	relative viability (Shikonin + Phenformin; first compound 1 µM)	relative viability (Shikonin + OSI-027; first compound 0.01 µM)	relative viability (Shikonin + OSI-027; first compound 0.1 µM)	relative viability (Shikonin + OSI-027; first compound 0.3162 µM)	relative viability (Shikonin + OSI-027; first compound 1 µM)
SW 900	–	–	–	–	0.166	0.165	–	0.185	0.19	0.667	0.589	0.666	0.661	0.575	0.616	0.508	0.569
A549	0.59	0.485	0.728	0.637	–	–	–	–	–	0.14	0.355	0.12	0.122	–	–	–	–
A-427	1.11	1.21	1.19	1.14	0.889	0.875	1.03	0.884	0.817	0.327	0.418	0.316	0.398	0.503	0.594	0.514	0.509
NCI-H1792	0.511	0.388	0.658	0.661	0.47	–	0.394	0.446	0.439	0.257	0.185	0.241	0.393	0.7	0.63	0.853	0.805
LCLC-97TM1	0.175	0.176	0.173	0.162	0.699	0.647	0.705	0.666	0.707	0.495	0.449	0.437	0.472	0.504	0.591	0.675	0.579
NCI-H1703	0.797	1.3	0.555	0.417	–	–	–	–	–	–	–	–	–	–	–	–	–
LCLC-103H	1.03	1.21	1.26	1.23	0.765	0.944	0.883	0.926	0.93	0.372	0.335	0.341	0.34	0.541	0.54	0.514	0.534
SK-LU-1	1.26	1.27	0.999	1.01	0.193	0.202	0.182	0.252	0.191	0.522	0.648	0.596	0.524	0.341	0.371	0.343	0.352
BEN	1.07	0.962	1.12	1.07	0.347	0.461	0.282	0.442	0.303	0.298	0.286	0.279	0.232	0.281	0.311	0.298	0.324
NCI-H1666	0.835	0.802	0.807	0.865	0.963	0.987	1.07	0.999	0.941	0.558	0.605	0.552	0.548	0.936	0.833	0.862	0.966
LC-2-ad	0.769	0.884	0.833	0.812	0.935	0.973	1.07	0.893	1.03	0.553	0.643	0.592	0.667	0.815	0.913	0.816	0.876
ChaGo-K-1	–	–	–	–	0.583	0.552	0.47	0.683	0.643	0.475	0.542	0.543	0.471	0.598	0.654	0.665	0.662
COR-L 105	1.1	0.971	0.845	0.655	0.705	0.811	0.601	0.827	0.736	0.452	0.507	0.423	0.466	0.685	0.723	0.613	0.611
NCI-H1975	1.11	0.985	1.01	0.793	0.214	0.154	–	0.213	0.192	0.417	0.431	0.413	0.408	0.728	0.763	0.7	0.68
Calu-6	0.984	1.08	0.984	0.972	–	–	–	–	–	–	–	–	–	–	–	–	–
HCC-366	0.592	0.852	0.985	0.673	–	–	–	–	–	0.62	0.644	0.663	0.597	1.07	1.27	1.14	0.859
NCI-H1648	–	–	–	–	–	–	–	–	–	–	–	–	–	0.253	0.285	0.285	0.26
EBC-1	0.984	0.857	0.727	1.02	–	–	–	–	–	–	–	–	–	–	–	–	–
NCI-H1299	1	1.03	0.82	0.659	–	–	–	–	–	–	–	–	–	–	–	–	–
NCI-H2342	–	–	–	–	0.856	0.576	0.722	0.675	0.724	0.679	0.538	0.653	0.587	0.597	0.589	0.646	0.671
IA-LM	0.738	0.473	0.434	0.573	–	–	–	–	–	–	–	–	–	–	–	–	–
NCI-H2170	–	–	–	–	0.793	0.762	0.718	0.661	0.629	0.399	0.445	0.449	0.431	0.729	0.695	0.782	0.777
